This passage reports EC50 results from patent US20260193250A1, “TOLL-LIKE RECEPTOR 7 AGONISTS AS IMMUNE-STIMULATORS TO ELICIT THE INNATE ANTITUMOR IMMUNITY” (Merck Patent GmbH, priority 2022, published 2026).

The target in one experiment is T1, hTLR7 (Homo sapiens, UniProt Q9NYK1).
T1 construct: host or cells: HEK-Blue hTLR7 (HEK293-derived SEAP reporter cells)
T1 sequence (Q9NYK1 27-1049): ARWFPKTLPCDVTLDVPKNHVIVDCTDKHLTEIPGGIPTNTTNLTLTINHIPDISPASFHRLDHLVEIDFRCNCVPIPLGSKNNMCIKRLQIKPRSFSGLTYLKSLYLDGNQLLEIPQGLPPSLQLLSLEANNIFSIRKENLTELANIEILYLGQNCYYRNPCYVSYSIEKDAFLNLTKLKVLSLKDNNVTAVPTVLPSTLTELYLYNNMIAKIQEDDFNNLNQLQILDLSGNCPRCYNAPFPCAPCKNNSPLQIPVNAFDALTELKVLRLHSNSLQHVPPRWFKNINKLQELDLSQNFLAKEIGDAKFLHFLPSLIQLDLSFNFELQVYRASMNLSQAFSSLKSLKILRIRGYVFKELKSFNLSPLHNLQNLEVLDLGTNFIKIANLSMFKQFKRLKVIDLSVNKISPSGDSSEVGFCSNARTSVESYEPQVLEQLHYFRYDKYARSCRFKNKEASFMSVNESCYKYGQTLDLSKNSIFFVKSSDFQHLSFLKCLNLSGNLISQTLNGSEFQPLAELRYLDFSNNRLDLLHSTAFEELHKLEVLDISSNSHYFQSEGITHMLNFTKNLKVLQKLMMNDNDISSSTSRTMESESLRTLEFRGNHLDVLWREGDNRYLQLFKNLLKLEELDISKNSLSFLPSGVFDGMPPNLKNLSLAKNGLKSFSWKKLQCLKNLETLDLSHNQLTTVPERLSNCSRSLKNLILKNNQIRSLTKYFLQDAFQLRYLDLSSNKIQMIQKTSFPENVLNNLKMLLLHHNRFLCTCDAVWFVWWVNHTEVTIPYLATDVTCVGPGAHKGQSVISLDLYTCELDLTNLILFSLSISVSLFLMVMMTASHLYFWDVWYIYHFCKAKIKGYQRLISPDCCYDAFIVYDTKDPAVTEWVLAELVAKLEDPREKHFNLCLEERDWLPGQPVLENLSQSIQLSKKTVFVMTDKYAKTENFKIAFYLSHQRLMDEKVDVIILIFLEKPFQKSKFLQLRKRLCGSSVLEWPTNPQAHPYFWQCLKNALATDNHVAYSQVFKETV
Kind of experiment: TLR7 reporter assay in HEK-Blue cells (SEAP, Quanti-Blue). Format: cell-based. The conditions noted are these: 24 hours incubation, SEAP absorbance at 620 nm. Here is the method:
(§1) HEK-Blue™ TLR7 and TLR8 cell lines were obtained from InvivoGen (San Diego, CA, USA). HEK-Blue cells were cultured in DMEM medium hi glucose (Gibco-10569010) supplemented with 10% HI-FBS (Aus origin) (Gibco-10100-147), 1% penicillin/streptomycin (Gibco-15140-122-100 ml) as per manufacturer's recommendation. In addition, specific antibiotic mixtures were added to the culture. 100 μg/ml Zeocin (11006-33-0), 10 μg/ml Blasticidin (ant-bl-05), 50 μg/ml Normocin (ANT-NR-1-500 MG) for HEK-Blue™ hTLR7 and 100 μg/ml Zeocin, 30 μg/ml Blasticidin, 50 μg/ml Normocin for HEK-Blue™ hTLR8 cells (all from InvivoGen).
(§2) All the compounds were prepared in 100% DMSO (Sigma-D2650). The compounds were serially diluted in 100% DMSO (3 fold) up to 10 point dose response curve starting with 30 μM; final concentration of DMSO in the plate was 0.3%. Resiquimod and TL8-506 (InvivoGen-tlrl-t18506) were used as controls. 0.3% DMSO and 10 μM Resiquimod were used as min and max respectively, and % activation was calculated using following formula:
(§3) % Activation: {100−(max absorbance−absorbance)/(max absorbance−min absorbance)}×100.
(§4) For stimulation with TLR7/8 agonists, cells were resuspended in complete media and 40 μl of cell suspension (10,000 cells/well) was seeded on day 1 in 384 well assay plate (Thermo Scientific™ Nunc-164688) having pre-dispensed compounds with Echo Liquid handler. The plate was spun at 100 g for 1 min to settle down the cells and incubated at 37° C. with 5% CO2 for 24 hours. For measuring production of SEAP after 24 hrs of incubation, 10 μl of Quanti-Blue™ solution (InvivoGen rep-qbs2) prepared according to manufacturer's instructions was added in dark to the assay plate and incubated at 37° C. with 5% CO2 for 30 min. Post incubation, the absorbance was measured at 620 nm in Tecan spark (Spark control Magellan). EC50 were determined using Graph Pad Prism Statistical software (Version 7.05), with individual data points represent the absorbance values of duplicates.

In the next experiment the target is T2, hTLR8 (Homo sapiens, UniProt Q9NR97).
T2 construct: host or cells: HEK-Blue hTLR8 (HEK293-derived SEAP reporter cells)
T2 sequence (Q9NR97 27-1041): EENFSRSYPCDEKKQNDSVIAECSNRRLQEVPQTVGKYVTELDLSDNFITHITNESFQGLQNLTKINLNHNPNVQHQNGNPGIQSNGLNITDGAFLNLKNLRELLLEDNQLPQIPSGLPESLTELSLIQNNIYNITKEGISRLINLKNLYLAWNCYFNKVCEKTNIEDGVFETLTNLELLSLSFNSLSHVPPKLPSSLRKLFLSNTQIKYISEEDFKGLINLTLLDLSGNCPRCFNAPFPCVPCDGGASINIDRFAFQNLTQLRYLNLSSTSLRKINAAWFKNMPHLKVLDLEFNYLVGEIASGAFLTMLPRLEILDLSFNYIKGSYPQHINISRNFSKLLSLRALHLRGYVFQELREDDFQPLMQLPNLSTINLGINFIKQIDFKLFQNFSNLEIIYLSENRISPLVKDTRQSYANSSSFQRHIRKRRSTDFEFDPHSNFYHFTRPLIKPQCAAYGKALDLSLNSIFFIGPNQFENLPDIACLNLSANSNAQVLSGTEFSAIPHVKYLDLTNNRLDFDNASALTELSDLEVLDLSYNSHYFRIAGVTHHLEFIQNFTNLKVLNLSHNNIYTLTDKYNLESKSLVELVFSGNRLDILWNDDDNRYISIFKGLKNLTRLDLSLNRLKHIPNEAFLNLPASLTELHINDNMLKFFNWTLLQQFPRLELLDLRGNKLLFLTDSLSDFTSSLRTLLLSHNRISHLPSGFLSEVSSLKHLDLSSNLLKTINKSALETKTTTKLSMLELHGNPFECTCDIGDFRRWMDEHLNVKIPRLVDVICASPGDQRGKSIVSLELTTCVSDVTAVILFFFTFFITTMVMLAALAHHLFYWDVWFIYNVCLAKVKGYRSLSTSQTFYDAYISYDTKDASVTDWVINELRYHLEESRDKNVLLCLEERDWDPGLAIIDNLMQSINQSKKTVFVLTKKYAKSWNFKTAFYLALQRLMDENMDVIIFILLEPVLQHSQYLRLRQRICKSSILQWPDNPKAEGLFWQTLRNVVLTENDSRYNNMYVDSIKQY
Kind of experiment: TLR8 reporter assay in HEK-Blue cells (SEAP, Quanti-Blue). Format: cell-based. The conditions noted are these: 24 hours incubation, SEAP absorbance at 620 nm. Here is the method:
as §1, §2, §3, §4

Structures are written as SMILES. pEC50: −log10 of the molar value. Bounds are passed on as bounds.

Take `CCOCc1nc2c(N)nc3ccccc3c2n1CC(C)(C)OCCN1CCN(C)CC1` [Example 1]: the pEC50 on hTLR7 was more than 8.00; at hTLR8 it was 5.00 to 6.00.

As to `CCOCc1nc2c(N)nc3ccccc3c2n1CC(C)(C)OCCCCCCN1CCN(C)CC1` [Example 5], the pEC50 was more than 8.00 at hTLR7 and 6.00 to 7.00 on hTLR8.

For `CCOCc1nc2c(N)nc3ccccc3c2n1CC(C)(C)OCCCCO` [Example 6], the pEC50 on hTLR7 is 7.00 to 8.00; on hTLR8, 5.00 to 6.00.

Consider `CCOCc1nc2c(N)nc3ccccc3c2n1CC(C)(C)OCCCCN1CCN(CCO)CC1` [Example 12], for which the values for the pEC50 on hTLR7 and on hTLR8 were 7.00 to 8.00 and 5.00 to 6.00, respectively.

Consider `CCOCc1nc2c(N)nc3ccccc3c2n1CC(C)(C)OCCCC(=O)N1CCN(C)CC1` [Example 15], for which the pEC50 is 7.00 to 8.00 at hTLR7 and 5.00 to 6.00 on hTLR8.

In the case of `CCOCc1nc2c(N)nc3ccccc3c2n1CC(C)(C)OCCNC(=O)CN1CCN(C)CC1` [Example 16], the pEC50 on hTLR7 was 6.00 to 7.00; on hTLR8, 5.00 to 6.00.

As for `CCOCc1nc2c(N)nc3ccccc3c2n1CC(C)(C)OC(=O)CN1CCN(C)CC1` [Example 17], the pEC50 at hTLR7 and at hTLR8 was 6.00 to 7.00 throughout.

In the case of `CCOCc1nc2c(N)nc3ccccc3c2n1CC(C)(C)OCCNC(=O)CO` [Example 20], the pEC50 at hTLR7 and on hTLR8 was less than 5.00 throughout.

For `CCOCc1nc2c(N)nc3ccccc3c2n1CC(C)(C)OCCNC(=O)C(C)(C)O` [Example 21], the figures for the pEC50 at hTLR7 and at hTLR8 were 6.00 to 7.00 and less than 5.00, respectively.

Consider `CCOCc1nc2c(N)nc3ccccc3c2n1CC(C)(C)OCCNC(=O)CC(=O)OC` [Example 22], for which the pEC50 is 6.00 to 7.00 on hTLR7 and less than 5.00 on hTLR8.

Regarding `CCOCc1nc2c(N)nc3ccccc3c2n1CC(C)(C)OCCNC(=O)CSC` [Example 23], the pEC50 is 6.00 to 7.00 at hTLR7 and less than 5.00 at hTLR8.

In the case of `CCOCc1nc2c(N)nc3ccccc3c2n1CC(C)(C)OCCNC(=O)CS(C)(=O)=O` [Example 24], the pEC50 at hTLR7 and at hTLR8 was 6.00 to 7.00 throughout.

With `CCOCc1nc2c(N)nc3ccccc3c2n1CC(C)(C)OCCNC(=O)CS(=O)(=O)O` [Example 25], the pEC50 at hTLR7 was 5.00 to 6.00; at hTLR8, less than 5.00.

Take `CCOCc1nc2c(N)nc3ccccc3c2n1CC(C)(C)OCCCCN1CCN(CCSC)CC1` [Example 26]: the pEC50 is 6.00 to 7.00 on hTLR7 and 5.00 to 6.00 on hTLR8.
